Assays:
[1] = logP by HPLC on reversed-phase columns (C 18), EEC directive 79/831 Annex V.A8; assay type: physicochemical; details: LC-MS; for Log P [a] / chromatographic logP: acidic range, pH 2.7, 0.1% aqueous formic acid and acetonitrile; for Log P [b]: neutral range, pH 7.8, 0.001 molar aqueous ammonium hydrogencarbonate and acetonitrile; for chromatographic logP: reversed-phase HPLC column (C18), read-out: Log P [a]
Experimental: The logP values were measured according to EEC directive 79/831 Annex V.A8 by HPLC (High Performance Liquid Chromatography) on reversed-phase columns (C 18), using the methods below:
^[a] The LC-MS determination in the acidic range is effected at pH 2.7 with 0.1% aqueous formic acid and acetonitrile (contains 0.1% formic acid) as eluents; linear gradient from 10% acetonitrile to 95% acetonitrile.
^[b] The LC-MS determination in the neutral range is effected at pH 7.8 using 0.001 molar aqueous ammonium hydrogencarbonate solution and acetonitrile as eluents; linear gradient from 10% acetonitrile to 95% acetonitrile.
The calibration is effected with unbranched alkan-2-ones (having 3 to 16 carbon atoms) with known logP values (logP values determined on the basis of the retention times by linear interpolation between two successive alkanones).

Phytophthora infestans = assay type: in vivo; details: young tomato plants, protective spray, 100 ppm active ingredient, evaluation 7 days after inoculation; 0% = control, 100% = no infection
Plasmopara viticola = test: Plasmopara test (grapevine) / protective; assay type: in vivo; details: young grapevine plants, protective spray, 10 ppm active ingredient, evaluation 6 days after inoculation; 0% = control, 100% = no infection
Experimental: Plasmopara Test (Grapevine)/Protective
• Solvent: 24.5 parts by weight of acetone • 24.5 parts by weight of dimethylacetamide • Emulsifier: 1 part by weight of alkylaryl polyglycol ether
To produce a suitable active ingredient formulation, 1 part by weight of active ingredient is mixed with the stated amounts of solvent and emulsifier, and the concentrate is diluted with water to the desired concentration.
To test for protective efficacy, young plants are sprayed with the active ingredient formulation at the stated application rate. After the spray coating has dried on, the plants are inoculated with an aqueous spore suspension of Plasmopara viticola and then remain in an incubation cabin at approx. 20° C. and 100% relative air humidity for 1 day. Subsequently, the plants are placed in a greenhouse at approx. 21° C. and approx. 90% air humidity for 4 days. The plants are then moistened and placed in an incubation cabin for 1 day.
Evaluation follows 6 days after the inoculation. 0% means an efficacy which corresponds to that of the control, whereas an efficacy of 100% means that no infection is observed.
In this test, the following inventive compounds show, at an active ingredient concentration of 10 ppm, an efficacy of 70% or more: […]

Compound	Log P [a] [1]	Log P [b] [1]	Eff. % (Phytophthora infestans) [%]	Eff. % (Plasmopara viticola) [%]	chromatographic logP [1]
COCCOc1ccccc1C1CC(c2csc(C3CCN(C(=O)Cn4nc(C(F)(F)F)cc4C)CC3)n2)=NO1 (racemic) [Ex. 55]	3.27[a];	3.25[b]	92	93	–
Cc1cc(C(F)(F)F)nn1CC(=O)N1CCC(c2nc(C3=NOC(c4ccccc4OC(=O)C4CC4)C3)cs2)CC1 (racemic) [Ex. 56]	3.52[a];	3.41[b]	89	98	–
Cc1cc(C(F)(F)F)nn1CC(=O)N1CCC(c2nc(C3=NOC(c4cccc(C=O)c4)C3)cs2)CC1 (centres unmarked) [Ex. 1]	2.83[a]	–	100	98	–
Cc1ccc(Cl)cc1NC(=O)N1CCC(c2nc(C3=NOC(c4cccc(C=O)c4)C3)cs2)CC1 (centres unmarked) [Ex. 2]	3.05[a]	–	100	100	–
Cc1ccc(Cl)cc1NC(=O)N1CCC(c2nc(C3=NOC(c4ccccc4C=O)C3)cs2)CC1 (centres unmarked) [Ex. 3, N-(5-Chloro-2-methylphenyl)-4-{4-[5-(2-formylphenyl)-4,5-dihydro-1,2-oxazol-3-yl]-1,3-thiazol-2-yl}piperidine-1-carboxamide]	–	–	100	100	3.35
CS(=O)(=O)Nc1ccccc1C1CC(c2csc(C3CCN(C(=O)Cc4cc(C(F)F)ccc4C(F)F)CC3)n2)=NO1 (centres unmarked) [Ex. 4, N-(2-{3-[2-(1-{[2,5-Bis(difluoromethyl)phenyl]acetyl}piperidin-4-yl)-1,3-thiazol-4-yl]-4,5-dihydro-1,2-oxazol-5-yl}phenyl)methanesulphonamide]	–	–	95	95	2.81
CS(=O)(=O)Nc1ccccc1C1CC(c2csc(C3CCN(C(=O)Nc4cc(C(F)F)ccc4C(F)F)CC3)n2)=NO1 (centres unmarked) [Ex. 6, N-[2,5-Bis(difluoromethyl)phenyl]-4-[4-(5-{2-[(methylsulphonyl)amino]phenyl}-4,5-dihydro-1,2-oxazol-3-yl)-1,3-thiazol-2-yl]piperidine-1-carboxamide]	–	–	95	98	2.72
Cc1cc(C(F)(F)F)nn1CC(=O)N1CCC(c2nc(C3=NOC(c4ccccc4C=O)C3)cs2)CC1 (centres unmarked) [Ex. 7, 2-{3-[2-(1-{[5-Methyl-3-(trifluoromethyl)-1H-pyrazol-1-yl]acetyl}piperidin-4-yl)-1,3-thiazol-4-yl]-4,5-dihydro-1,2-oxazol-5-yl}benzaldehyde]	–	–	100	100	3.12
C#CCOc1cccc(Cl)c1C1CC(c2csc(C3CCN(C(=O)Cn4nc(C(F)(F)F)cc4C)CC3)n2)=NO1 (centres unmarked) [Ex. 11]	3.62[a];	3.53[b]	85	100	–
C#CCOc1cccc(F)c1C1CC(c2csc(C3CCN(C(=O)Cn4nc(C(F)(F)F)cc4C)CC3)n2)=NO1 (centres unmarked) [Ex. 12]	3.35[a];	3.27[b]	75	100	–
C#CCOc1ccccc1C1CC(c2csc(C3CCN(C(=O)Cn4nc(C(F)(F)F)cc4C)CC3)n2)=NO1 (centres unmarked) [Ex. 13]	3.47[a];	3.37[b]	89	100	–
C=CCOc1ccccc1C1CC(c2csc(C3CCN(C(=O)Cn4nc(C)cc4C(F)F)CC3)n2)=NO1 (centres unmarked) [Ex. 18]	3.42[a];	3.33[b]	100	95	–
C=CCOc1cccc(F)c1C1CC(c2csc(C3CCN(C(=O)Nc4cc(C)ccc4C)CC3)n2)=NO1 (centres unmarked) [Ex. 25]	3.64[a];	3.62[b]	100	100	–
C#CCOc1ccccc1C1CC(c2csc(C3CCN(C(=O)Cn4nc(C)cc4C(F)F)CC3)n2)=NO1 (centres unmarked) [Ex. 29]	3.03[a]	–	100	100	–
C=CCOc1ccccc1C1CC(c2csc(C3CCN(C(=O)Cn4nc(C(F)(F)F)cc4C)CC3)n2)=NO1 (centres unmarked) [Ex. 30]	3.86[a];	3.73[b]	97	100	–

From patent US9512117B2 (priority 2010, dated 2016)
